Measured values reported in patent US12043601B2, “N-substituted-1H-1,2,4-triazole-3-carboxamides, analogues thereof, and methods of treatment using same” (THE REGENTS OF THE UNIVERSITY OF COLORADO, priority 2018, dated 2024).
Converted amounts (≈) assume the structure as drawn.

Key:
DksA = DksA (Salmonella typhimurium, UniProt P0A1G5); assay: DksA-dependent livJ in vitro transcription; assay type: biochemical; details: livJ promoter; for IVT: concentration showing activity
Method: To measure the potency of a compound in inhibition of DksA biological function, rpsMtranscripts in vitro was determined by non-radioactive in vitro transcription reactions with qPCR analysis with divergent compounds. Briefly, 5 nM pTIM-rpsMplasmid was mixed with […] of compounds in 10 μl reaction buffer (40 mM HEPES [pH 7.4], 2 mM MgCl2, 60 mM potassium glutamate, 0.05% NP-40, 200 μM ATP, 200 μM GTP, 200 μM CTP, 200 μM UTP, and 5 nM E. coli RNA polymerase holoenzyme (NEB, Ipswich, MA) with 5 μM DksA. The in vitro transcription was carried out at 37° C. for 10 min, and then terminated at 70° C. for 10 min. To remove template DNA after treated with DNaseI, DNA-free DNA Removal kit (ThermoFisher) was used according to manufacturer's direction. The resulting materials were used as templates to generate cDNA with 100 U MMLV reverse transcriptase (Promega), 0.45 μM gene specific primer, and 20 U RNase inhibitor (Promega). The amount of cDNA synthesized for 1 h at 42° C. was quantified by real-time PCR (qRT-PCR). The copy number of specific transcripts was calculated to the standard curve generated with known gene copy concentrations. The IC50 is the concentration at which the curve passes through the 50% inhibition level. Standard deviation was calculated from 3 independent experiments.
The compounds were initially tested at 0.1 μM and 1 μM using as a target the promoter of the livJ gene that encodes a transporter of branch-chain amino acids (Table 4).

Salmonella strain 14028s = assay: Minimum inhibitory concentration in EG minimal media; assay type: cell-based, Salmonella Typhimurium; details: 18 h; for Growth in EG at concentration tested 1 μg/ml / Growth in EG at concentration tested 2 μg/ml / Growth in EG at concentration tested 4 μg/ml / Growth in EG at concentration tested 8 μg/ml / Growth in EG at concentration tested 16 μg/ml / Growth in EG at concentration tested 32 μg/ml: EG minimal media, 37° C.; for MIC: Salmonella, 14028S
Method: DksA controls transcription of metabolic and virulence genes, allowing bacteria to both grow in minimum media and cause disease. Inhibition of bacterial growth in EG minimum media was used as an easy and reliable proxy of the DksA-dependent regulation of metabolism.
In a non-limiting example, wild-type Salmonella strain 14028s was grown overnight (18.5 h), and then diluted in EG minimal media to a density of about 10^5 CFU/mL. […] Each test tube was incubated at 37° C. with shaking for 18 h and bacterial growth was evaluated. The MIC value was determined as the lowest concentration of compound that inhibited growth.

Compound solubility = assay type: physicochemical; details: for Compound Solubility, 1 μM: solvent at 1 μM; for Compound Solubility, 10 μM: solvent at 10 μM; for Compound Solubility, 100 μM: solvent at 100 μM; for Compound Solubility, 1 mM: solvent at 1 mM; for Compound Solubility, 10 mM: solvent at 10 mM; for Compound Solubility, 16 mg/ml: solvent at 16 mg/ml

Chain of DksA (P0A1G5 whole entry): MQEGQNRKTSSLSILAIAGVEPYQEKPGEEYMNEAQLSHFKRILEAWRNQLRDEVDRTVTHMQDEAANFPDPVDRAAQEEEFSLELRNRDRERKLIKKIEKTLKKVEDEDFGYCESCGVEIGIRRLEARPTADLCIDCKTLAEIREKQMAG

SMILES: COc1ccc(CNC(=O)c2nc[nH]n2)cc1OC [Compound 2, N-(3,4-dimethoxybenzyl)-1H-1,2,4-triazole-3-carboxamide]
- In vitro transcription assay result, 0.1 μM (DksA): no change
- In vitro transcription assay result, 1 μM (DksA): no change
- Growth in EG at concentration tested 1 μg/ml (Salmonella strain 14028s): +
- Growth in EG at concentration tested 2 μg/ml (Salmonella strain 14028s): +
- Growth in EG at concentration tested 4 μg/ml (Salmonella strain 14028s): +
- Growth in EG at concentration tested 8 μg/ml (Salmonella strain 14028s): +
- Growth in EG at concentration tested 16 μg/ml (Salmonella strain 14028s): +
- Growth in EG at concentration tested 32 μg/ml (Salmonella strain 14028s): +
- Compound Solubility, 1 μM (Compound solubility): water
- Compound Solubility, 10 μM (Compound solubility): water
- Compound Solubility, 100 μM (Compound solubility): water
- Compound Solubility, 1 mM (Compound solubility): water
- Compound Solubility, 10 mM (Compound solubility): water
- Compound Solubility, 16 mg/ml (Compound solubility): DMSO

SMILES: COc1cccc(CNC(=O)c2nc[nH]n2)c1OC [Compound 3, N-(2,3-dimethoxybenzyl)-1H-1,2,4-triazole-3-carboxamide]
- In vitro transcription assay result, 0.1 μM (DksA): no induction
- In vitro transcription assay result, 1 μM (DksA): no induction
- IVT (DksA): 0.1 µM
- Growth in EG at concentration tested 1 μg/ml (Salmonella strain 14028s): +
- Growth in EG at concentration tested 2 μg/ml (Salmonella strain 14028s): +
- Growth in EG at concentration tested 4 μg/ml (Salmonella strain 14028s): +
- Growth in EG at concentration tested 8 μg/ml (Salmonella strain 14028s): +
- MIC (Salmonella strain 14028s): 32 µg/mL (≈ 122 µM)
- Compound Solubility, 1 μM (Compound solubility): water
- Compound Solubility, 10 μM (Compound solubility): water
- Compound Solubility, 100 μM (Compound solubility): water
- Compound Solubility, 1 mM (Compound solubility): water
- Compound Solubility, 10 mM (Compound solubility): water
- Compound Solubility, 16 mg/ml (Compound solubility): DMSO

SMILES: COc1ccc(CNC(=O)c2nc[nH]n2)cc1 [Compound 4, N-(4-methoxybenzyl)-1H-1,2,4-triazole-3-carboxamide]
- In vitro transcription assay result, 0.1 μM (DksA): no change
- In vitro transcription assay result, 1 μM (DksA): no change
- Growth in EG at concentration tested 1 μg/ml (Salmonella strain 14028s): +
- Growth in EG at concentration tested 2 μg/ml (Salmonella strain 14028s): +
- Growth in EG at concentration tested 4 μg/ml (Salmonella strain 14028s): +
- MIC (Salmonella strain 14028s): 8 µg/mL (≈ 34.4 µM)
- Compound Solubility, 1 μM (Compound solubility): water
- Compound Solubility, 10 μM (Compound solubility): water
- Compound Solubility, 100 μM (Compound solubility): water
- Compound Solubility, 1 mM (Compound solubility): water
- Compound Solubility, 10 mM (Compound solubility): water
- Compound Solubility, 16 mg/ml (Compound solubility): DMSO

SMILES: O=C(Nc1cccc(OC(F)(F)F)c1)c1nc[nH]n1 [Compound 5, N-(3-(trifluoromethoxy)phenyl)-1H-1,2,4-triazole-3-carboxamide]
- In vitro transcription assay result, 0.1 μM (DksA): no induction
- In vitro transcription assay result, 1 μM (DksA): no induction
- IVT (DksA): 0.1 µM
- Growth in EG at concentration tested 1 μg/ml (Salmonella strain 14028s): +
- Growth in EG at concentration tested 2 μg/ml (Salmonella strain 14028s): +
- Growth in EG at concentration tested 4 μg/ml (Salmonella strain 14028s): +
- Growth in EG at concentration tested 8 μg/ml (Salmonella strain 14028s): +
- Growth in EG at concentration tested 16 μg/ml (Salmonella strain 14028s): +
- Growth in EG at concentration tested 32 μg/ml (Salmonella strain 14028s): +
- Compound Solubility, 1 μM (Compound solubility): water
- Compound Solubility, 10 μM (Compound solubility): water
- Compound Solubility, 100 μM (Compound solubility): water
- Compound Solubility, 1 mM (Compound solubility): water
- Compound Solubility, 10 mM (Compound solubility): DMSO
- Compound Solubility, 16 mg/ml (Compound solubility): DMSO

SMILES: O=C(NCc1ccc2c(c1)OCO2)c1nc[nH]n1 [Compound 6, N-(benzo[d][1,3]dioxol-5-ylmethyl)-1H-1,2,4-triazole-3-carboxamide]
- In vitro transcription assay result, 0.1 μM (DksA): no change
- In vitro transcription assay result, 1 μM (DksA): no change
- Growth in EG at concentration tested 1 μg/ml (Salmonella strain 14028s): +
- Growth in EG at concentration tested 2 μg/ml (Salmonella strain 14028s): +
- MIC (Salmonella strain 14028s): 8 µg/mL (≈ 32.5 µM)
- Compound Solubility, 1 μM (Compound solubility): water
- Compound Solubility, 10 μM (Compound solubility): water
- Compound Solubility, 100 μM (Compound solubility): water
- Compound Solubility, 1 mM (Compound solubility): water
- Compound Solubility, 10 mM (Compound solubility): water
- Compound Solubility, 16 mg/ml (Compound solubility): DMSO
